Laboratory results as given in patent publication US5264621A, “Anti-virus agent” (Sanyo-Kokusaku Pulp Co., Ltd., priority 1991, dated 1993).
Converted amounts (≈) assume the structure as drawn. Read-outs that look alike come from different tables or passages of the source.

Key:
bone marrow cells = settings: background statement; cited from earlier work
[1] = tested on: MOLT-4 cells infected with HTLV-IIIB; test: Inhibition of the formation of giant cells; type: cell-based; settings: co-culture of HTLV-IIIB infected and non-infected MOLT-4 cells, 24 hours, counted under microscope
Protocol: 3. Inhibition of the formation of giant cells
MOLT-4 cells infected with HTLV-IIIB and MOLT-4 cells without infection were cultured each in same number (5×10^4) in medium with 3,3'-[1,10-decanediyl-bis(carbonylamino)]-bis(1,5-naphthalenedisulfonic acid) added and, after cultured for 24 hours, the number of giant cells formed was counted under microscope.

[2] = Toxicity of sample to non-infected cells (MTT); type: cell-based; settings: human, mt-4 cells, non-infected MT-4 cells, read-out: CC50 = 50% toxic concentration
Protocol: (§1) Various concentrations of 3,3'-[1,10-decanediyl-bis(carbonylamino)]-bis(1,5-naphthalenedisulfonc acid) were added to each medium suspended 1×10^5 cells/ml of MT-4 cells, which was infected with HTLV-IIIB or HIV-1HE. Infection was made at an infection number of MOI=0.02. Then, after cultured for 4 days at 37° C., the number of surviving cells was quantitatively determined by dyeing surviving cells with MTT dye. Moreover, at the same time, by dyeing also non-infected cells with MTT dye, the toxicity of sample to cells was calculated.

HIV-1HE = test: Inhibitory effect on the destruction of T-cells due to HIV (MTT), HIV-1HE; type: cell-based, HIV (human immunodeficiency virus); settings: MT-4 cells
Protocol: (§2) 1. Inhibitory effect on the destruction of T-cells due to HIV
as §1

HTLV-IIIB = test: Inhibitory effect on the destruction of T-cells due to HIV (MTT), HTLV-IIIB; type: cell-based, HIV (human immunodeficiency virus); settings: MT-4 cells
Protocol: as §2, §1

[3] = Human immunodeficiency virus 1, MT4, 96 h, MOI=0.02, 4 days at 37° C., MTT, read-out: EC50 = Effective concentration for inhibition of 50% cells

Row | SMILES | side effects (bone marrow cells) | inhibitory activity against formation of giant cells [1] | CC50 at 96 h ([2]; HIV-1HE system (No. 2)) [µg/mL] | CC50 at 96 h ([2]; HTLV-IIIB system (No. 1)) [µg/mL] | EC50 (HIV-1HE; [3]) [µg/mL] | T.I. = Selective toxicity (CC50 /EC50) (HIV-1HE) | EC50 (HTLV-IIIB; [3]) [µg/mL] | T.I. = Selective toxicity (CC50 /EC50) (HTLV-IIIB)
1 | Cc1cn([C@H]2C[C@H](N=[N+]=[N-])[C@@H](CO)O2)c(=O)[nH]c1=O [AZT, azido thymidine] | inhibition of the growth of bone marrow cells | – | – | – | – | – | – | –
2 | O=C(CCCCCCCCCCC(=O)Nc1cc(S(=O)(=O)O)c2cccc(S(=O)(=O)O)c2c1)Nc1cc(S(=O)(=O)O)c2cccc(S(=O)(=O)O)c2c1 [3,3'-[1,10-decanediyl-bis(carbonylamino)]-bis(1,5-naphthalenedisulfonic acid)] | – | recognized | 500 (≈ 624 µM) | 383 (≈ 478 µM) | 40.7 (≈ 50.8 µM) | 12.3 | 46 (≈ 57.4 µM) | 8.3
